# Test results published in patent US20250288573A1 (H. LEE MOFFITT CANCER CENTER AND RESEARCH INSTITUTE, INC., priority 2018, published 2025).
# Read-outs that look alike come from different tables or passages of the source.
# Biological target: T1, CRBN (Homo sapiens, UniProt Q96SW2)
# T1 construct: endogenous in cells; host or cells: primary human T cells / CD8+ T cells from peripheral blood
# Assay: Western blot for expression of CRBN relative to vinculin in human T cells (CRBN degradation)
# Format: cell-based
# Details: for remaining activity at 10 µM / remaining activity at 0.01 µM: read-out: Relative Density of CRBN (% of DMSO); for remaining activity at 0.01 µM: 24 h; for CRBN Degradation ** (WB): grade (+) to (++++) or words, key not given
# Description: Bortez=bortezomib; MG132=proteasome inhibitor; MLN4924=NEDD8 inhibitor.
# This assay is a standard Western blot assay for expression of CRBN relative to vinculin.
# […] 0.1 percent DMSO was used as a vehicle control.
# T1 sequence (Q96SW2 whole entry): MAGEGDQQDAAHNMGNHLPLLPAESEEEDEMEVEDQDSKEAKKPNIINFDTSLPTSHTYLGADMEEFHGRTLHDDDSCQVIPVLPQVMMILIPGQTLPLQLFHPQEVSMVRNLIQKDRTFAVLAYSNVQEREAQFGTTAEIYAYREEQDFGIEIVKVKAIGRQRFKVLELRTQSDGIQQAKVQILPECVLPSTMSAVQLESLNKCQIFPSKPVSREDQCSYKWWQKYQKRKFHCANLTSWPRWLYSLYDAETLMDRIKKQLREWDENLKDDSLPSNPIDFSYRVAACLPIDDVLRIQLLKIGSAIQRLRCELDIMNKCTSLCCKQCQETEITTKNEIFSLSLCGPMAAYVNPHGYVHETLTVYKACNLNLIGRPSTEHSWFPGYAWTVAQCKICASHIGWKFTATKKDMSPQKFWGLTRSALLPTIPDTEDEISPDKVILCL
Structure (SMILES),remaining activity at 10 µM (10uM),"remaining activity at 0.01 µM (10nM, human T cells, 24 hours)",also measured
"O=C1CCC(N2Cc3c(NC(=O)CCCc4cn(CC(=O)Nc5cccc6c5CN(C5CCC(=O)NC5=O)C6=O)nn4)cccc3C2=O)C(=O)N1 (stereo not shown) [XS01-109, N-(2-(2,6-Dioxopiperidin-3-yl)-1-oxoisoindolin-4-yl)-4-(1-(2-((2-(2,6-dioxopiperidin-3-yl)-1-oxoisoindolin-4-yl)amino)-2-oxoethyl)-1H-1,2,3-triazol-4-yl)butanamide]",132%,213%,
"Cc1nc2cccc(NCc3cccc(CNc4cccc5nc(C)n(C6CCC(=O)NC6=O)c(=O)c45)n3)c2c(=O)n1C1CCC(=O)NC1=O (stereo not shown) [MA10-126, 3,3′-(((Pyridine-2,6-diylbis(methylene))bis(azanediyl))bis(2-methyl-4-oxoquinazoline-5,3(4H)-diyl))bis(piperidine-2,6-dione)]",61.1%,54.2%,
"Cc1nc2cccc(NC(=O)CCCCCC(=O)Nc3cccc4nc(C)n(C5CCC(=O)NC5=O)c(=O)c34)c2c(=O)n1C1CCC(=O)NC1=O (stereo not shown) [MA10-121, N1,N7-bis(3-(2,6-Dioxopiperidin-3-yl)-2-methyl-4-oxo-3,4-dihydroquinazolin-5-yl)heptanediamide]",72.6%,56.5%,
"O=C1C[C@H](NC(=O)c2cccc(NC(=O)CCCCCCC(=O)Nc3cccc(C(=O)N[C@H]4CC(=O)NC4=O)c3)c2)C(=O)N1 [XS01-066, N^1,N^8-Bis(3-(((S)-2,5-dioxopyrrolidin-3-yl)carbamoyl)phenyl)octanediamide]",157%,,
"Cc1nc2cccc(NC(=O)Cn3cc(CCCC(=O)Nc4cccc5c4CN(C4CCC(=O)NC4=O)C5=O)nn3)c2c(=O)n1C1CCC(=O)NC1=O (stereo not shown) [XS01-123, N-(2-(2,6-Dioxopiperidin-3-yl)-1-oxoisoindolin-4-yl)-4-(1-(2-((3-(2,6-dioxopiperidin-3-yl)-2-methyl-4-oxo-3,4-dihydroquinazolin-5-yl)amino)-2-oxoethyl)-1H-1,2,3-triazol-4-yl)butanamide]",151%,243%,
"O=C1CCC(N2Cc3c(NC(=O)CCc4cn(CC(=O)Nc5cccc6c5C(=O)N(C5CCC(=O)NC5=O)C6=O)nn4)cccc3C2=O)C(=O)N1 (stereo not shown) [XS01-125, 3-(1-(2-((2-(2,6-Dioxopiperidin-3-yl)-1,3-dioxoisoindolin-4-yl)amino)-2-oxoethyl)-1H-1,2,3-triazol-4-yl)-N-(2-(2,6-dioxopiperidin-3-yl)-1-oxoisoindolin-4-yl)propanamide]",153%,196%,
"O=C1C[C@H](NC(=O)CCCCCCCCC(=O)N[C@H]2CC(=O)NC2=O)C(=O)N1 [XS01-081, N^1,N^10-Bis((S)-2,5-dioxopyrrolidin-3-yl)decanediamide]",35%,,
"O=C1CCC(N2C(=O)c3cccc(NC(=O)CCc4cn(CC(=O)Nc5cccc6c5C(=O)N(C5CCC(=O)NC5=O)C6=O)nn4)c3C2=O)C(=O)N1 (stereo not shown) [XS01-126, N-(2-(2,6-Dioxopiperidin-3-yl)-1,3-dioxoisoindolin-4-yl)-3-(1-(2-((2-(2,6-dioxopiperidin-3-yl)-1,3-dioxoisoindolin-4-yl)amino)-2-oxoethyl)-1H-1,2,3-triazol-4-yl)propanamide]",131%,207%,
"O=C1CCC(N2Cc3ccc(NC(=O)CCCCCCC(=O)Nc4ccc5c(c4)C(=O)N(C4CCC(=O)NC4=O)C5)cc3C2=O)C(=O)N1 (stereo not shown) [EC2-063, N^1,N^8-bis(2-(2,6-Dioxopiperidin-3-yl)-3-oxoisoindolin-5-yl)octanediamide]",13.5%,38.8%,
"O=C1CC[C@H](N2Cc3c(CCCOCCOCCCc4cccc5c4CN([C@H]4CCC(=O)NC4=O)C5=O)cccc3C2=O)C(=O)N1 [XS01-011, (3S,3'S)-3,3′-(((Ethane-1,2-diylbisbis(oxy))bisbis(propane-3,1-diyl))bisbis(1-oxoisoindoline-4,2-diyl))bisbis(piperidine-2,6-dione)]",38.1%,3.42%,
"Cc1nc2cccc(NC(=O)CCCCC(=O)Nc3cccc4nc(C)n(C5CCC(=O)NC5=O)c(=O)c34)c2c(=O)n1C1CCC(=O)NC1=O (stereo not shown) [MA10-088, N1,N6-bis(3-(2,6-Dioxopiperidin-3-yl)-2-methyl-4-oxo-3,4-dihydroquinazolin-5-yl)adipamide]",58.1%,135%,
"O=C1CCC(N2Cc3c(NC(=O)CCCc4cn(CC(=O)Nc5cccc6c5C(=O)N(C5CCC(=O)NC5=O)C6=O)nn4)cccc3C2=O)C(=O)N1 (stereo not shown) [XS01-122, 4-(1-(2-((2-(2,6-Dioxopiperidin-3-yl)-1,3-dioxoisoindolin-4-yl)amino)-2-oxoethyl)-1H-1,2,3-triazol-4-yl)-N-(2-(2,6-dioxopiperidin-3-yl)-1-oxoisoindolin-4-yl)butanamide]",151%,255%,
Cc1nc2cccc(NCc3ccc(CNc4cccc5nc(C)n(C6CCC(=O)NC6=O)c(=O)c45)cc3)c2c(=O)n1C1CCC(=O)NC1=O (stereo not shown) [MA10-112],21.4%,5.13%,
"O=C1CCC(N2Cc3c(CCCCCC(=O)Nc4cccc5c4CN(C4CCC(=O)NC4=O)C5=O)cccc3C2=O)C(=O)N1 (stereo not shown) [EC2-109, N,6-bis(2-(2,6-Dioxopiperidin-3-yl)-1-oxoisoindolin-4-yl)hexanamide]",9.84%,97.5%,
O=C1CCC(N2Cc3ccc(NC(=O)CCCCC(=O)Nc4ccc5c(c4)C(=O)N(C4CCC(=O)NC4=O)C5)cc3C2=O)C(=O)N1 (stereo not shown) [EC2-066],189%,,
Cc1sc2c(c1C)C(c1ccc(Cl)cc1)=N[C@@H](CC(=O)NCCCCC(=O)Nc1cccc(C(=O)NC3CCC(=O)NC3=O)c1)c1nnc(C)n1-2 (stereo partly shown) [EC2-088],,,CRBN Degradation (WB)/ IC50/DC50 Relative Density of CRBN (% of DMSO): value without qualifier (no concentration or unit printed): 43.73 ± 24.45 (1/25/19)
"Cc1nc2cccc(NC(=O)CCc3cn(CC(=O)Nc4cccc5nc(C)n(C6CCC(=O)NC6=O)c(=O)c45)nn3)c2c(=O)n1C1CCC(=O)NC1=O (stereo not shown) [XS01-132, N-(3-(2,6-dioxopiperidin-3-yl)-2-methyl-4-oxo-3,4-dihydroquinazolin-5-yl)-3-(1-(2-((3-(2,6-dioxopiperidin-3-yl)-2-methyl-4-oxo-3,4-dihydroquinazolin-5-yl)amino)-2-oxoethyl)-1H-1,2,3-triazol-4-yl)propanamide]",98.3%,199%,
"Cc1nc2cccc(NC(=O)CCCCCCCCC(=O)Nc3cccc4nc(C)n(C5CCC(=O)NC5=O)c(=O)c34)c2c(=O)n1C1CCC(=O)NC1=O (stereo not shown) [MA10-090, N1,N10-bis(3-(2,6-Dioxopiperidin-3-yl)-2-methyl-4-oxo-3,4-dihydroquinazolin-5-yl)decanediamide]",82.2%,132%,
"O=C1CCC(N2Cc3ccc(NC(=O)CCCC(=O)Nc4ccc5c(c4)C(=O)N(C4CCC(=O)NC4=O)C5)cc3C2=O)C(=O)N1 (stereo not shown) [EC2-060, N^1,N^5-bis(2-(2,6-Dioxopiperidin-3-yl)-3-oxoisoindolin-5-yl)glutaramide]",40.3%,48.4%,CRBN Degradation ** (WB): No degradation
"Cc1nc2cccc(C#CCOCCOCCOCC#Cc3cccc4nc(C)n(C5CCC(=O)NC5=O)c(=O)c34)c2c(=O)n1C1CCC(=O)NC1=O (stereo not shown) [MA10-153, 3,3′-((((Oxybis(ethane-2,1-diyl))bis(oxy))bis(prop-1-yne-3,1-diyl))bis(2-methyl-4-oxoquinazoline-5,3(4H)-diyl))bis(piperidine-2,6-dione)]",208%,14.8%,CRBN Degradation ** (WB): No Degradation
"CN1C(=O)CCC(N2Cc3c(CCCOCCOCCCc4cccc5c4CN(C4CCC(=O)N(C)C4=O)C5=O)cccc3C2=O)C1=O (stereo not shown) [SM3-104, 3,3′-(((Ethane-1,2-diylbis(oxy))bis(propane-3,1-diyl))bis(1-oxoisoindoline-4,2-diyl))bis(1-methylpiperidine-2,6-dione)]",,92.1%,
"Cc1nc2cccc(CCCOCCOCCCc3cccc4nc(C)n(C5CCC(=O)NC5=O)c(=O)c34)c2c(=O)n1C1CCC(=O)NC1=O (stereo not shown) [MA10-120, 3,3′-(((Ethane-1,2-diylbis(oxy))bis(propane-3,1-diyl))bis(2-methyl-4-oxoquinazoline-5,3(4H)-diyl))bis(piperidine-2,6-dione)]",,,remaining activity at 0.01 µM: 56.7%; remaining activity at 10 µM: 82.8%
"O=C1CCC(N2Cc3c(C#CCCCC(=O)Nc4cccc5c4CN(C4CCC(=O)NC4=O)C5=O)cccc3C2=O)C(=O)N1 (stereo not shown) [EC2-108, N,6-bis(2-(2,6-Dioxopiperidin-3-yl)-1-oxoisoindolin-4-yl)hex-5-ynamide]",79.7%,85.6%,
"O=C1CCC(NC(=O)CCCCCCC(=O)NC2CCC(=O)NC2=O)C(=O)N1 (stereo not shown) [XS01-093, N^1,N^8-Bis(2,6-dioxopiperidin-3-yl)octanediamide]",133%,116%,
"O=C1CCC(N2Cc3c(NC(=O)CCc4cn(CC(=O)Nc5cccc6c5CN(C5CCC(=O)NC5=O)C6=O)nn4)cccc3C2=O)C(=O)N1 (stereo not shown) [XS01-113, N-(2-(2,6-dioxopiperidin-3-yl)-1-oxoisoindolin-4-yl)-3-(1-(2-((2-(2,6-dioxopiperidin-3-yl)-1-oxoisoindolin-4-yl)amino)-2-oxoethyl)-1H-1,2,3-triazol-4-yl)propanamide]",106%,225%,
"Cc1nc2c(NCc3ccc(CNc4cccc5c(=O)n(C6CCC(=O)NC6=O)c(C)nc45)cc3)cccc2c(=O)n1C1CCC(=O)NC1=O (stereo not shown) [XS01-030, 3,3′-(((1,4-Phenylenebis(methylene))bis(azanediyl))bis(2-methyl-4-oxoquinazoline-8,3(4H)-diyl))bis(piperidine-2,6-dione)]",93%,12.1%,
